Test results reported in a melting point compilation (Tetko et al.; mined from patent text by program, amines drawn as free bases though some values may be those of a salt).

Row | SMILES | melting point [°C]
1 | COCc1c(S(C)(=O)=O)ccc(C(=O)O)c1C | 129 to 131
2 | COCCOc1ccc(/C=C/c2cc(/C=C/c3ccc4cc[nH]c4c3)n[nH]2)c(OC)c1 | 90 to 96
3 | CCOC(=O)c1cccc(-c2ccc3c(c2)N(C(=O)Cc2cccc(C(F)(F)F)c2)CC3)c1 | 222 to 223
4 | CC(C)SCCCCCCCCCCCC(=O)Nc1ccccc1OCCCC(=O)O | 82 to 84
5 | CS(=O)(=O)c1ccc(-c2cnn(Cc3ccc4cc(F)ccc4n3)c(=O)c2-c2ccc(F)cc2)cc1 | 116 to 119
6 | Cc1ccc(-c2c(NS(=O)(=O)c3ccc(C(C)(C)C)cc3)ncnc2OCCOc2ncc(C#CC(C)(C)O)cn2)cc1 | 172 to 174
7 | Cc1c(C)c(N2CCN(c3ccc(Br)cc3)CC2)c(C)c2c1OC(C)C2 (stereo not given) | 202 to 204
8 | O=C(O)C1=Cc2cc(S(=O)(=O)NCCc3ccccc3)ccc2OC1C(F)(F)F (stereo not given) | 187 to 190
9 | COc1ccc(-c2ccc(C(=O)O)c(OC)c2)cc1OC | 134 to 135
10 | CCOC(=O)C=Cc1cc(C=CC(=O)OCC)cc(Cc2cccnc2)c1 | 94 to 96
11 | CCCCc1oc2ccccc2c1C(=O)NCc1ccc2c(Br)c(OC(Cc3ccccc3)C(=O)OC)ccc2c1 (stereo not given) | 110 to 112
12 | CN(C)N=Nc1c(Br)csc1C(N)=O | 194 to 196
13 | CCC1Cc2ccc(C(C)C(=O)O)cc2C1=O (stereo not given) | 85 to 86
14 | CCCCn1c(=O)[nH]c2ccc(OC)c(OC)c2c1=N | 165 to 168
15 | CCCCCCCCCCCCCCCCCCOc1ccccc1NC(=O)CC(=O)C(C)(C)SCC | 60 to 62
16 | CCOC(=O)C(=O)c1ccc(OCCCCCCCCCCCCOc2ccccc2)cc1 | 58 to 59
17 | CCOC(=O)c1nc(-c2ccc([N+](=O)[O-])c(C)c2)[nH]c1-c1ccc(OC)cc1 | 187 to 191
18 | ClC1=Nc2cc(Br)ccc2Oc2cscc21 | 196 to 197
19 | CC(C)C[C@@H](C=NNC(N)=O)NC(=O)[C@H](Cc1c[nH]cn1)NC(=O)C(Cc1ccccc1)Cc1ccccc1 | 111 to 115
20 | CC1=Nc2ccc(S(=O)(=O)NC3CCCCC3)cc2S(=O)(=O)N1 | 239 to 242
21 | CN1CCN([C@H]2CC[C@@H](N)CC2)C1=O | 81 to 87
22 | CCCn1c(=O)c2[nH]c(-c3ccsc3)nc2n(CCC)c1=O | > 250
23 | Cc1c2c(nn1-c1ccc(Cl)cc1F)CCCC2 | 84.5 to 87.5
24 | CC1(C)SC(c2ccc(O)cc2)NC1C(=O)O (stereo not given) | 207 to 209

Row | SMILES | melting point [°C]
25 | Nc1nn2cc(-c3ccc([N+](=O)[O-])o3)nc2s1 | 257 to 258
26 | CC(=O)NC(C(=O)O)C1c2ccccc2CCc2ccccc21 (stereo not given) | 220 to 223
27 | COc1ccc(CN2CCc3c(nc4ccc(OC)cc4c3-c3ccc(OC)cc3)C2=O)cc1 | 132 to 134
28 | CNC(=O)C(Cc1c[nH]c2ccccc12)NC(=O)C(CC(C)C)C(CC(=O)OC)SC(C)=O (stereo not given) | 134 to 136
29 | CN1C(=O)C(C(=O)Nc2ccccn2)Sc2ccccc21 (stereo not given) | 141 to 143
30 | O=c1[nH]c2ccc(OCCCCN3CCC(c4cccc(Cl)c4Cl)CC3)cc2[nH]1 | 180 to 182
31 | CC(N=Cc1ccc(O)cc1)c1ccc([N+](=O)[O-])cc1 (single isomer, unassigned; (-)) | 118 to 120
32 | C=CCOC(=O)OCc1ccc(C#N)cc1C(=O)O | 81 to 83
33 | CCCCOc1nc(N)c2[nH]c(=O)n(CCCNS(=O)(=O)c3cccc(CC(=O)OC)c3)c2n1 | 218 to 219
34 | CN=C(NC#N)NCCSCc1[nH]cnc1Br | 144 to 146
35 | Cc1cc(NC(=O)C(C)(O)COc2ccc(CCCCl)cc2)ccc1[N+](=O)[O-] (stereo not given) | 110 to 112
36 | O=C(Cn1c(-c2ccc(Cl)cc2)nc2cccnc21)NCc1ccccc1 | 200
37 | O=C1CCC(N2Cc3c(OCc4ccc(CNCCO)cc4)cccc3C2=O)C(=O)N1 (stereo not given) | 251 to 253
38 | O=C(Nc1ccccn1)C(CC1CCCC1)c1ccc([N+](=O)[O-])cc1 (stereo not given) | 110 to 115
39 | O=c1[nH]c2cc(Br)ccc2c(=O)o1 | 280 to 281
40 | c1cc(-c2nccs2)cc(-n2cnc3cc(-c4ccoc4)ccc32)c1 | 102 to 105
41 | Cc1cnc(NC(=O)C2c3ccccc3Oc3ccccc32)o1 | 217 to 220
42 | COc1ccc(N2C(=O)N(C(C)CO)c3nc(Nc4ccccc4)ncc3C2C)cc1 (stereo not given) | 165 to 180
43 | CCOC(=O)CCc1c(OCCCCCBr)ccc2ccc(OCC(=O)OCC)cc12 | 29.5 to 32
44 | Clc1ccc(COC(CCCn2ccnc2)c2ccc(Cl)cc2Cl)c(Cl)c1 (stereo not given) | 108
45 | OC(CSc1ncccn1)CN1CCN(C(c2ccc(F)cc2)c2ccc(F)cc2)CC1 (stereo not given) | 75 to 76
46 | COc1ccc(C(OC(C)=O)C(COC(C)=O)[N+](=O)[O-])cc1OC (stereo not given) | 85 to 88
47 | COC(=O)c1cc(Cl)c(Cl)c(Cl)c1 | 111 to 112
48 | Cc1c(NC(=O)c2ccc(-c3ccc4c(c3)CCO4)cc2F)ccc2cc(CN3CCCC3)cnc12 | 181 to 182

Row | SMILES | melting point [°C]
49 | CC(C)(c1ccccc1)N1CCC=C(c2ccccc2)C1=O | 119 to 120
50 | CCOC(=O)c1nn(-c2ccccc2)c2c1CCCc1ccccc1-2 | 110 to 111
51 | COc1ccc(Nc2nc(N)nc3[nH]c4ccccc4c23)cc1 | 209
52 | CN(CCNC(=C[N+](=O)[O-])SCc1ccccc1)Cc1ccc(Cl)nc1 | 119 to 123
53 | CCCC[C@@H](NC(=O)OC(C)(C)C)C(=O)NCC(=O)OCc1ccccc1 | 85 to 86
54 | BrC(Br)=Cc1ccccc1NCc1ccccc1 | 93 to 95
55 | Oc1ccc2c(ccn2Nc2ccncc2F)c1 | 70 to 73
56 | Cc1cc(NNC(=O)OC(C)(C)C)c([N+](=O)[O-])c(N(Cc2ccccc2)Cc2ccccc2)n1 | 60 to 67
57 | CCCSNc1ccc(N)cc1 | 213 to 225
58 | COc1cccc(CNc2nc(Cl)nc3c2nc(Br)n3C(C)C)c1 | 123 to 125
59 | Cc1cc2sc3ncc(C(=O)Nc4nnn[nH]4)c(=O)n3c2cc1C | > 300
60 | CC(=O)NC(C#N)NC(=O)c1cc(C)cc(C)c1 (stereo not given) | 195 to 197
61 | CC(=O)CC(=O)CC(=O)c1cc(S(=O)(=O)c2ccccc2)ccc1[N+](=O)[O-] | 143 to 145
62 | CC(=Cc1c(Cl)cccc1Cl)[N+](=O)[O-] | 49 to 50
63 | [O-][N+](=Cc1ccccc1)CCCCCC[N+]([O-])=Cc1ccccc1 | 105
64 | CCCn1cc2c(C3C(=O)Nc4ccc(Br)cc43)nc(NCC(C)N)nc2n1 (stereo not given) | 247 to 250
65 | COC(=O)c1ccc2c(c1)N(C1CC1)C=NS2(=O)=O | 191 to 194
66 | Cc1csc2[nH]c(=O)oc(=O)c12 | 220
67 | Nc1c(Cl)cc(C(O)CNCCCCCOCCc2ccccn2)cc1Cl (stereo not given) | 140 to 142
68 | Cc1sc2c(c1C)C(c1ccc(Cl)cc1)=NC(CC(=O)Nc1ncccn1)c1nnc(C)n1-2 (stereo not given) | 251 to 253
69 | CC(C)(CO)NS(=O)(=O)c1cccc(NC(=O)c2cnn3c(C(F)(F)F)cc(-c4ccc(C(F)(F)F)c(OCC(F)(F)F)c4)nc23)c1 | 251
70 | Cc1nc2cc(-c3ccnc(-c4cn(C)c(=O)n4-c4ccc(C(C)(C)C#N)cc4)c3)cnc2[nH]1 | 288
